On the set-up of data set [1]: species or system mice. The note with it: mouse, in vivo, sc.
For a further data set, the target named is T1, human DOR (Homo sapiens, UniProt P41143).
T1 construct: expressed in transfected cells; host or cells: CHO cells (membranes)
Put plainly: Opioid receptor binding assay, competition binding, CHO cell membranes (DOR). To be noted: membranes from CHO cells stably expressing human DOR; read-out: Affinity Ki DOR.

In data set [2] the target is T2, KOR (Homo sapiens, UniProt P41145). Put plainly: biochemical. The format is biochemical. Also on record: expressed in transfected cells; host or cells: CHO cells (membranes). To be noted: for Emax: read-out: [35S]GTPγS binding KOR Emax. (In general: Binding of GTPγS marks nucleotide exchange on a G protein.)
Data set [3] deals with T2, KOR. The data set is described as follows: biochemical. The format is binding. More on the design: expressed in transfected cells; host or cells: CHO cells (membranes).
The next data set concerns the target T3, human MOR (Homo sapiens, UniProt P35372).
T3 construct: expressed in transfected cells; host or cells: CHO cells (membranes)
The data set is described as follows: Opioid receptor binding assay, competition binding, CHO cell membranes (MOR). The note with it: membranes from CHO cells stably expressing human MOR; read-out: Affinity Ki MOR.

For data set [4], the target named is T2, KOR. Put plainly: KOR-mediated β-arrestin2 recruitment, DiscoveRx PathHunter assay, U2OS-hMOR-β-arrestin2 cells. The format is cell-based. To be noted: for Emax: read-out: β-arrestin2 recruitment assay Emax. (Activated receptors often draw arrestin, which recruitment assays turn into a signal.)
Setting [5] is: read-out: [35S]GTPγS binding KOR EC50.

Structures are written as SMILES. Where a name gives a salt, the structure may show the parent alone. Read-outs that look alike come from different tables or passages of the source.

T2 sequence (P41145 whole entry): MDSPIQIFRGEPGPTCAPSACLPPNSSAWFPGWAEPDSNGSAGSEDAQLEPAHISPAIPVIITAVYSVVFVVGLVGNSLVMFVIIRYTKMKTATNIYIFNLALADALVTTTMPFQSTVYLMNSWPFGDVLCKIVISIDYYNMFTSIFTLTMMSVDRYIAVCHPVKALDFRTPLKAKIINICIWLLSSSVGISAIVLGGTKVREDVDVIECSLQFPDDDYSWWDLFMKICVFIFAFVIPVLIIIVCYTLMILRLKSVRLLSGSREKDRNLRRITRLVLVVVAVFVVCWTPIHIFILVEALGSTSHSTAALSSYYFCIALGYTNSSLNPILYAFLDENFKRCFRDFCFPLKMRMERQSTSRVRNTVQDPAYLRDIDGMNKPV
T1 sequence (P41143 whole entry): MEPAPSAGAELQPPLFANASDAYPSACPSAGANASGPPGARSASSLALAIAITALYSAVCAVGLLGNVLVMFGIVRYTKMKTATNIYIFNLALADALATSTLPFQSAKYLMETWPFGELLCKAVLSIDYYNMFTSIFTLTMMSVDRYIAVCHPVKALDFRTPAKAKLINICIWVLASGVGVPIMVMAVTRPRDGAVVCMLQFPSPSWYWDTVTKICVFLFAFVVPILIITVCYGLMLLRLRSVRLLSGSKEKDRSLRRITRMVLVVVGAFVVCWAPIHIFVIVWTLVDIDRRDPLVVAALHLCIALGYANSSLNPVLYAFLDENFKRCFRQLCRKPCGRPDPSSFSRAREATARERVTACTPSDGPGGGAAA
T3 sequence (P35372 whole entry): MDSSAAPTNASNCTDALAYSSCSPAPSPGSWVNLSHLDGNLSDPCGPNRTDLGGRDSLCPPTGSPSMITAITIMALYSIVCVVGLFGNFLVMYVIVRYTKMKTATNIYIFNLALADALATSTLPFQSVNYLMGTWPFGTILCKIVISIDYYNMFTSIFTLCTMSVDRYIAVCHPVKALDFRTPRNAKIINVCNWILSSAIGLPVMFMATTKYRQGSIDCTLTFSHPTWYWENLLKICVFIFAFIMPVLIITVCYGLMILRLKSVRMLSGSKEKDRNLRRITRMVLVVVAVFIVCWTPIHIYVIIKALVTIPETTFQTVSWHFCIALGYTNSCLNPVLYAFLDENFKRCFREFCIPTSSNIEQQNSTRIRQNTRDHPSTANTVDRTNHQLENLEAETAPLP

Take `Oc1cccc(CCN(CCc2ccccc2)CC2CCC2)c1` [HS665, reference compound]: the ED50 writhing test in data set [1] was 1.91 mg/kg, s.c. The inhibitory constant (Ki) on human DOR is greater than 10000 nM.

Turning to `CC(C)CCN(CCc1cccc(O)c1)CCc1cccc(O)c1`, the melting point lay within 71 to 72 °C.

Take `COc1cccc(CCN(CCc2ccc(O)cc2)CC2CCCC2)c1` [Compound 27, 4-[2-[(Cyclopentylmethyl)(3-methoxyphenethyl)amino]ethyl]phenol]: the melting point lay in the range of 74 to 77 °C. Besides, on KOR [2], the EC50 came out at 22.8 nM and the Emax was found to be 73.6%. At KOR [3], this molecule returned a Ki of 0.17 nM. For the same molecule, at human DOR, the inhibition constant Ki was found to be 6240 nM. The Ki at human MOR was 158 nM.

Molecule `Oc1cccc(CCN(CCc2cccc(O)c2)CC2CC2)c1` displayed a melting point of 106 to 107 °C.

For the molecule `Oc1cccc(CCN(CCc2cccc(O)c2)CC2CCCCC2)c1` [Compound 29, 3,3′-[2,2′-(Cyclohexylmethylazanediyl)bis(ethane-2,1-diyl)]diphenol], the melting point was in the range of 157 to 158 °C. Also, on KOR [2], the EC50 was determined as 10.6 nM and the Emax came to 92.2%. Also, the affinity at KOR [3] corresponds to a Ki of 0.18 nM. Besides, the inhibitory constant (Ki) at human MOR came out at 219 nM.

Turning to `Oc1cccc(CCN(CCc2cccc(O)c2F)CC2CCC2)c1` [Compound 53, 3-[2-[(Cyclobutylmethyl)(3-hydroxyphenethyl)amino]ethyl]-2-fluorophenol], the values for the EC50 on KOR [2] (setting [5]) and on KOR [4] were 1.49 nM and 529 nM, respectively. In addition, the results for the Emax at KOR [2] and at KOR [4] were 53.1% and 41.2%, respectively. Besides, the values for the inhibitory constant (Ki) on KOR [3] (read-out: Affinity Ki KOR), at human DOR and at human MOR were 0.12 nM, 4750 nM and 548 nM, respectively. Moreover, the Bias factor at KOR [4] was 263.

Take `Oc1cccc(CCN(CCc2ccccc2)CC2CCC2)c1F` [Compound 49, 3-[2-[(Cyclobutylmethyl)(phenethyl)amino]ethyl]-2-fluorophenol]: the EC50 is 6.9 nM at KOR [2] (setting [5]) and 859 nM on KOR [4]. Moreover, the values for the Emax on KOR [2] and on KOR [4] were 66.1% and 57.5%, respectively. In addition, the values for the Ki on KOR [3] and on human MOR were 0.022 nM and 414 nM, respectively. The Bias factor at KOR [4] is recorded as 82.

`CCCCCN(CCc1cccc(O)c1)CCc1cccc(O)c1` had a melting point of 70 to 72 °C.

As for `CCCCN(CCc1cccc(O)c1)CCc1cccc(O)c1`, the melting point fell in the range of 62 to 64 °C.

In the case of `Oc1cccc(CCN(CCc2ccccc2)CC2CCCC2)c1` [Compound 2, 3-[2-[(Cyclopentylmethyl)(phenethyl)amino]ethyl]phenol], the melting point fell in the range of 154 to 156 °C. Also, in data set [1], the ED50 writhing test is given as 0.54 mg/kg, s.c; the “Relative analgesic potency to HS665” value is 3.5; the “Relative analgesic potency to HS666” value came out at 6.0; the “Relative analgesic potency to U50,488” value came to 2.9. On KOR [2], the half-maximal effective concentration (EC50) stood at 4.19 nM and the maximal response (Emax) came to 72.9%. Also, on KOR [4], the midpoint of the response, the EC50, lay at 1340 nM and the Emax came out at 83%. Further, the inhibition constant Ki on human DOR turned out to be 5210 nM.

`Oc1ccc(CCN(CCc2cccc(O)c2)CC2CCCCC2)cc1` came in with a melting point of 155 to 157 °C.

For `CC(C)CCN(CCc1ccccc1)CCc1cccc(O)c1`, the melting point is 149 to 150 °C.

Take `C=CCN(CCc1ccc(O)cc1)CCc1cccc(O)c1`: the melting point is 103 to 105 °C.

Regarding `Cl.Oc1cccc(CCN(CCc2ccccc2)CC2CC2)c1` [HS666, 3-[2-[(Cyclopropylmethyl)(phenethyl)amino]ethyl]phenol Hydrochloride, reference compound], in data set [1], the ED50 writhing test is reported as 3.23 mg/kg, s.c; the “Relative analgesic potency to HS665” value came out at 0.6; the “Relative analgesic potency to HS666” value was determined as 1.0; the “Relative analgesic potency to U50,488” value amounted to 0.5. Also, the concentration giving a half-maximal response (EC50) at KOR [2] (setting [5]) is 35 nM. In addition, the maximal effect (Emax) on KOR [2] amounted to 53.4%. Moreover, the Ki at KOR [3] (read-out: Affinity Ki KOR) is 5.9 nM. On KOR [4], the Bias factor worked out at 18, the EC50 worked out at 502 nM and the Emax is 25%. For the same molecule, the Ki on human DOR is greater than 10000 nM. Further, the Ki on human MOR came to 826 nM.

`Oc1cccc(CCN(CCc2cccc(O)c2)CC2CCCC2)c1` [Compound 39, 3,3′-[2,2′-(Cyclopentylmethylazanediyl)bis(ethane-2,1-diyl)]diphenol] showed a melting point of 113 °C. Moreover, on KOR [2], a half-maximal response (EC50) required 14.2 nM and the Emax stood at 83.6%. The affinity on KOR [3], expressed as Ki, was 0.38 nM. In addition, on human MOR, the Ki stood at 702 nM.

For the molecule `Oc1ccc(CCN(CCc2ccccc2)CC2CCCC2)cc1`, the melting point was in the range of 150 to 153 °C.

Take `CCCCN(CCc1ccc(O)cc1)CCc1cccc(O)c1`: the melting point was in the range of 65 to 68 °C.

Turning to `CCCCCCN(CCc1cccc(O)c1)CCc1cccc(O)c1`, the melting point fell in the range of 75 to 76 °C.

`Oc1cccc(CCN(CCc2ccccc2)CC2CCCCC2)c1` [Compound 3, 3-[2-[(Cyclohexylmethyl)(phenethyl)amino]ethyl]phenol] registered a melting point of 150 to 151 °C. Further, in data set [1], the ED50 writhing test is given as 0.97 mg/kg, s.c; the “Relative analgesic potency to HS665” value was 2.0; the “Relative analgesic potency to HS666” value is listed as 3.3; the “Relative analgesic potency to U50,488” value is listed as 1.6. Also, the EC50 at KOR [2] (setting [5]) turned out to be 0.23 nM. Also, the Emax on KOR [2] was 61.9%. Moreover, the affinity on KOR [3] corresponds to a Ki of 0.088 nM. At KOR [4], the Bias factor turned out to be 2909, the EC50 is 1360 nM and the Emax is 72.2%. Moreover, the inhibitory constant (Ki) at human DOR worked out at 2140 nM. The Ki on human MOR amounted to 436 nM.

Consider `Oc1cccc(CCN(CCc2ccccc2)CC2CCCCC2)c1F` [Compound 51, 3-[2-[(Cyclohexylmethyl)(phenethyl)amino]ethyl]-2-fluorophenol], for which the melting point lay within 129 to 130 °C. Also, in data set [1], the ED50 writhing test is on record as 1.20 mg/kg, s.c; the “Relative analgesic potency to HS665” value came out at 1.6; the “Relative analgesic potency to HS666” value is 2.7; the “Relative analgesic potency to U50,488” value is 1.3. Moreover, the EC50 at KOR [2] (setting [5]) came out at 2.77 nM. Besides, the Emax on KOR [2] was 84.6%. The molecule further came in with a Ki at KOR [3] of 0.046 nM. At KOR [4], the Bias factor came to 1514, the EC50 was found to be 4180 nM and the maximum response (Emax) was determined as 48.4%. Also, the Ki on human MOR worked out at 543 nM.

Turning to `Nc1cccc(CCN(CCc2ccccc2)CC2CCC2)c1` (as salt: hydrochloride), the melting point lay in the range of 68 to 70 °C.

As for `Oc1ccc(CCN(CCc2cccc(O)c2)CC2CC2)cc1`, the melting point was in the range of 104 to 105 °C.

`Oc1cccc(CCN(CCc2ccccc2)Cc2ccccc2)c1` [Compound 4, 3-[2-[Benzyl(phenethyl)amino]ethyl]phenol] showed a melting point of 177 to 178 °C. Further, in data set [1], the “Relative analgesic potency to HS665” value amounted to 1.6, the “Relative analgesic potency to HS666” value was 2.7 and the “Relative analgesic potency to U50,488” value is 1.3. The EC50 on KOR [2] (setting [5]) came out at 4.65 nM. Also, on KOR [2], the Emax stood at 79.5%. Further, the inhibition constant (Ki) on KOR [3] (read-out: Affinity Ki KOR) was 0.71 nM. At KOR [4], the Bias factor turned out to be 1172 and the maximal effect (Emax) was 37.3%. The EC50 at KOR [4] (DiscoveRx PathHunter assay, U2OS-hMOR cells, read-out: β-arrestin2 recruitment assay EC50) was determined as 4450 nM. Besides, the inhibition constant (Ki) on human DOR is 1860 nM. On human MOR, the Ki was 463 nM.

Take `Oc1cccc(CCN(CCc2ccccc2)Cc2ccccc2)c1F`: the melting point lay within 126 to 128 °C.

As for `Oc1cccc(CCN(CCc2cccc(O)c2)CC2CCC2)c1` [Compound 12, 3,3′-[2,2′-(Cyclobutylmethylazanediyl)bis(ethane-2,1-diyl)]diphenol], in data set [1], the ED50 writhing test is on record as 1.59 mg/kg, s.c; the “Relative analgesic potency to HS665” value was 1.2; the “Relative analgesic potency to HS666” value is listed as 2.0; the “Relative analgesic potency to U50,488” value is on record as 1.0. At KOR [2], the EC50 was 5.51 nM and the Emax was 71.4%. Also, affinity on KOR [3] was put at a Ki of 0.34 nM. For the same molecule, the Ki on human DOR was found to be 4180 nM. In addition, at human MOR, the inhibitory constant (Ki) was 230 nM.

For `Oc1cccc(CCN(CCc2ccccc2)C2CCC2)c1`, the melting point lay within 100 to 101 °C.

For `C=CCN(CCc1cccc(O)c1)CCc1cccc(O)c1`, the melting point was 104 to 106 °C.

For orientation: Ki means a measure of affinity in units of concentration, obtained from inhibition or displacement. Usually melting point stands for the temperature of the solid-liquid transition. The EC50 is the midpoint of the concentration-response curve. The term Emax denotes the maximal effect, on the per cent scale that the assay sets.

The values above are taken from patent US10377698B2, “Diphenethylamine derivatives which are inter alia useful as analgesics and method for their production” (UNIVERSITY OF INNSBRUCK, priority 2015, dated 2019).
